The results in this text go back to patent US9464082B2, “Aryl and arylalkyl substituted pyrazolyl and pyrimidinyl tricyclic enones as antioxidant inflammation modulators” (AbbVie Inc., priority 2014, dated 2016).

For this assay, the system named is IFNγ-Induced NO Production. Put plainly: Nitric Oxide Suppression Assay (Suppression of IFNγ-Induced NO Production). In kind it is cell-based. As to conditions: RAW264.7; RAW 264.7 mouse macrophage cells; 2 hour pre-treatment with compound (3 μM to 0.3 nM, 10 point curve); 20 ng/mL interferon gamma, ~18 hour; Griess detection; n=2-3 in duplicates. The method, boiled down:
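Griess-based absorbance read (520–550 nm) of supernatant after RAW 264.7 mouse macrophages received 10-point compound dilutions (3 μM–0.3 nM, DMSO ≤1%) for 2 h, then 20 ng/mL IFNγ for ~18 h at 37 °C. Signal normalised to IFNγ-only peak; IC50 fitted to mean of n=2-3 duplicates.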
Turning to `Cc1nc(-c2ccoc2)c2c(n1)[C@@]1(c3ccccc3)C=C(C#N)C(=O)[C@@H](C)[C@@H]1CC2` [Example 23, (6aS,7S,10aR)-4-(3-furyl)-2,7-dimethyl-8-oxo-10a-phenyl-5,6,6a,7,8,10a-hexahydrobenzo[h]quinazoline-9-carbonitrile], the IC50 is 6.98 nM. For the molecule `Cc1noc(-c2ccc(-c3ncc4c(n3)[C@@]3(c5ccccc5)C=C(C#N)C(=O)[C@@H](C)[C@@H]3CC4)cc2)n1` [Example 173, (6aS,7S,10aR)-7-methyl-2-[4-(3-methyl-1,2,4-oxadiazol-5-yl)phenyl]-8-oxo-10a-phenyl-5,6,6a,7,8,10a-hexahydrobenzo[h]quinazoline-9-carbonitrile], the half-inhibitory concentration (IC50) was found to be 19.7 nM. As for `COc1ccccc1-c1nc(OC)c2c(n1)[C@@]1(c3ccccc3)C=C(C#N)C(=O)[C@@H](C)[C@@H]1CC2` [Example 10, (6aS,7S,10aR)-4-methoxy-2-(2-methoxyphenyl)-7-methyl-8-oxo-10a-phenyl-5,6,6a,7,8,10a-hexahydrobenzo[h]quinazoline-9-carbonitrile], the IC50 is 22.5 nM. As for `C[C@@H]1C(=O)C(C#N)=C[C@]2(c3cccc(F)c3)c3n[nH]c(-c4cccc(CCCO)c4)c3CCC12` (stereo partly drawn) [Example 78, (6S,9aR)-9a-(3-fluorophenyl)-3-[3-(3-hydroxypropyl)phenyl]-6-methyl-7-oxo-4,5,5a,6,7,9a-hexahydro-2H-benzo[g]indazole-8-carbonitrile], the figure is 21.8 nM; as for `C[C@@H]1C(=O)C(C#N)=C[C@]2(c3cccc(F)c3)c3ncncc3CC[C@@H]12` [Example 55, (6aS,7S,10aR)-10a-(3-fluorophenyl)-7-methyl-8-oxo-5,6,6a,7,8,10a-hexahydrobenzo[h]quinazoline-9-carbonitrile], 11.4 nM. With `COc1cccc([C@]23C=C(C#N)C(=O)[C@@H](C)[C@@H]2CCc2cnn(C)c23)c1` (racemic) [Example 5, rac-(5aS,6S,9aR)-9a-(3-methoxyphenyl)-1,6-dimethyl-7-oxo-4,5,5a,6,7,9a-hexahydro-1H-benzo[g]indazole-8-carbonitrile], the IC50 amounted to 41.3 nM. As for `Cc1nc(-c2ccc(N3CCOCC3)c(Br)c2)c2c(n1)[C@@]1(c3ccccc3)C=C(C#N)C(=O)[C@@H](C)[C@@H]1CC2` [Example 146, (6aS,7S,10aR)-4-[3-bromo-4-(morpholin-4-yl)phenyl]-2,7-dimethyl-8-oxo-10a-phenyl-5,6,6a,7,8,10a-hexahydrobenzo[h]quinazoline-9-carbonitrile], the figure is 52.2 nM; as for `C[C@@H]1C(=O)C(C#N)=C[C@]2(c3ccccc3)c3nc(-c4ccc(O)cc4)ncc3CC[C@@H]12` [Example 114, (6aS,7S,10aR)-2-(4-hydroxyphenyl)-7-methyl-8-oxo-10a-phenyl-5,6,6a,7,8,10a-hexahydrobenzo[h]quinazoline-9-carbonitrile], 5 nM. As to `C[C@@H]1C(=O)C(C#N)=C[C@]2(c3ccccc3)c3nn(C)cc3CC[C@@H]12` [Example 52, (5aS,6S,9aR)-2,6-dimethyl-7-oxo-9a-phenyl-4,5,5a,6,7,9a-hexahydro-2H-benzo[g]indazole-8-carbonitrile], the IC50 worked out at 53.2 nM.

Take `C[C@@H]1C(=O)C(C#N)=C[C@]2(c3ccccc3)c3n[nH]c(-c4cccc(O)c4)c3CC[C@@H]12` [Example 88, (5aS,6S,9aR)-3-(3-hydroxyphenyl)-6-methyl-7-oxo-9a-phenyl-4,5,5a,6,7,9a-hexahydro-2H-benzo[g]indazole-8-carbonitrile]: the IC50 worked out at 20.1 nM.

Regarding `Cc1nc(-c2cccc(O)c2)c2c(n1)[C@@]1(c3ccccc3)C=C(C#N)C(=O)[C@@H](C)[C@@H]1CC2` [Example 109, (6aS,7S,10aR)-4-(3-hydroxyphenyl)-2,7-dimethyl-8-oxo-10a-phenyl-5,6,6a,7,8,10a-hexahydrobenzo[h]quinazoline-9-carbonitrile], the half-maximal inhibitory concentration (IC50) was 2.87 nM. As for `C[C@@H]1C(=O)C(C#N)=C[C@]2(c3ccccc3)c3c(cnn3Cc3ccc(Br)cc3)CC[C@@H]12` [Example 65, (5aS,6S,9aR)-1-(4-bromobenzyl)-6-methyl-7-oxo-9a-phenyl-4,5,5a,6,7,9a-hexahydro-1H-benzo[g]indazole-8-carbonitrile], the figure is 109 nM; as for `Cc1nc(-c2ccc3nccn3c2)c2c(n1)[C@@]1(c3ccccc3)C=C(C#N)C(=O)[C@@H](C)[C@@H]1CC2` [Example 107, (6aS,7S,10aR)-4-(imidazo[1,2-a]pyridin-6-yl)-2,7-dimethyl-8-oxo-10a-phenyl-5,6,6a,7,8,10a-hexahydrobenzo[h]quinazoline-9-carbonitrile], 10.7 nM. For `C[C@@H]1C(=O)C(C#N)=C[C@]2(c3ccccc3)c3nc(N4CCOCC4)ncc3CC[C@@H]12` [Example 19, (6aS,7S,10aR)-7-methyl-2-(morpholin-4-yl)-8-oxo-10a-phenyl-5,6,6a,7,8,10a-hexahydrobenzo[h]quinazoline-9-carbonitrile], the IC50 was found to be 36.2 nM. For `C[C@@H]1C(=O)C(C#N)=C[C@]2(c3ccccc3)c3n[nH]c(-c4cncnc4)c3CC[C@@H]12` [Example 87, (5aS,6S,9aR)-6-methyl-7-oxo-9a-phenyl-3-(pyrimidin-5-yl)-4,5,5a,6,7,9a-hexahydro-2H-benzo[g]indazole-8-carbonitrile], the IC50 is 4.18 nM. `C[C@@H]1C(=O)C(C#N)=C[C@]2(c3ccccc3)c3n[nH]c(-c4cccc(CCCO)c4)c3CC[C@@H]12` [Example 123, (5aS,6S,9aR)-3-[3-(3-hydroxypropyl)phenyl]-6-methyl-7-oxo-9a-phenyl-4,5,5a,6,7,9a-hexahydro-2H-benzo[g]indazole-8-carbonitrile]: the concentration for half-maximal inhibition (IC50) is 7.72 nM. For the molecule `C[C@@H]1C(=O)C(C#N)=C[C@]2(c3ccccc3)c3n[nH]c(-c4cnn(-c5ccc(C#N)cc5)c4)c3CC[C@@H]12` [Example 157, (5aS,6S,9aR)-3-[1-(4-cyanophenyl)-1H-pyrazol-4-yl]-6-methyl-7-oxo-9a-phenyl-4,5,5a,6,7,9a-hexahydro-2H-benzo[g]indazole-8-carbonitrile], the IC50 amounted to 44.4 nM. As for `COc1nc(Cl)nc2c1CC[C@H]1[C@H](C)C(=O)C(C#N)=C[C@]21c1ccccc1` [Example 102, (6aS,7S,10aR)-2-chloro-4-methoxy-7-methyl-8-oxo-10a-phenyl-5,6,6a,7,8,10a-hexahydrobenzo[h]quinazoline-9-carbonitrile], the figure is 3.97 nM; as for `C[C@@H]1C(=O)C(C#N)=C[C@]2(c3ccccc3)c3nn(C)c(-c4cccc(-c5ccnnc5)c4)c3CC[C@@H]12` [Example 151, (5aS,6S,9aR)-2,6-dimethyl-7-oxo-9a-phenyl-3-[3-(pyridazin-4-yl)phenyl]-4,5,5a,6,7,9a-hexahydro-2H-benzo[g]indazole-8-carbonitrile], 6.81 nM.

Take `C[C@@H]1C(=O)C(C#N)=C[C@]2(c3ccccc3)c3c(c(-c4cccnc4)nn3C)CC[C@@H]12` [Example 26, (5aS,6S,9aR)-1,6-dimethyl-7-oxo-9a-phenyl-3-(pyridin-3-yl)-4,5,5a,6,7,9a-hexahydro-1H-benzo[g]indazole-8-carbonitrile]: the concentration for half-maximal inhibition (IC50) was 1.3 nM. As for `C[C@@H]1C(=O)C(C#N)=C[C@]2(c3ccccc3)c3nc(-c4ccc(C(=O)O)cc4)ncc3CC[C@@H]12` [Example 77, 4-[(6aS,7S,10aR)-9-cyano-7-methyl-8-oxo-10a-phenyl-5,6,6a,7,8,10a-hexahydrobenzo[h]quinazolin-2-yl]benzoic acid], the figure is 15.4 nM; as for `Cc1nc(-c2cccc(CCC(N)=O)c2)c2c(n1)[C@@]1(c3ccccc3)C=C(C#N)C(=O)[C@@H](C)[C@@H]1CC2` [Example 156, 3-{3-[(6aS,7S,10aR)-9-cyano-2,7-dimethyl-8-oxo-10a-phenyl-5,6,6a,7,8,10a-hexahydrobenzo[h]quinazolin-4-yl]phenyl}propanamide], 3.57 nM.
